Test results as given in ChEMBL document CHEMBL1144409, “Synthesis of new quinoxaline-2-carboxylate 1,4-dioxide derivatives as anti-Mycobacterium tuberculosis agents” (J Med Chem, 2005).
≈ marks a conversion by molar mass, not a printed value.

Columns and labels:
Assay type in all cases: functional
[1] = system: Mycobacterium tuberculosis; assay: Ratio of the MIC value of the Mycobacterium tuberculosis thiacetazone resistant strain to H37Rv strain was determined
[2] = system: Mycobacterium tuberculosis; assay: Ratio of the MIC value of the Mycobacterium tuberculosis rifampin resistant strain to H37Rv strain was determined
[3] = system: Mycobacterium tuberculosis; assay: Ratio of the MIC value of the Mycobacterium tuberculosis kanamycin resistant strain to H37Rv strain was determined
[4] = system: Mycobacterium tuberculosis; assay: Ratio of the MIC value of the Mycobacterium tuberculosis ethionamide resistant strain to H37Rv strain was determined
[5] = system: Mycobacterium tuberculosis; assay: Ratio of the MIC value of the Mycobacterium tuberculosis ciprofloxacin resistant strain to H37Rv strain was determined
[6] = system: Mycobacterium tuberculosis; assay: In vitro minimum inhibitory concentration value against thiacetazone resistant Mycobacterium tuberculosis in alamar assay
[7] = system: Mycobacterium tuberculosis; assay: In vitro minimum inhibitory concentration value against kanamycin resistant Mycobacterium tuberculosis in alamar assay
[8] = system: Mycobacterium tuberculosis; assay: In vitro minimum inhibitory concentration value against ethionamide resistant Mycobacterium tuberculosis in alamar assay
[9] = system: Mycobacterium tuberculosis; assay: In vitro minimum inhibitory concentration value against isoniazid resistant Mycobacterium tuberculosis in alamar assay
[10] = system: Mycobacterium tuberculosis; assay: In vitro minimum inhibitory concentration value against rifampin resistant Mycobacterium tuberculosis in alamar assay
[11] = system: Mycobacterium tuberculosis; assay: In vitro minimum inhibitory concentration value against ciprofloxacin resistant Mycobacterium tuberculosis in alamar assay
[12] = system: Mycobacterium tuberculosis; assay: In vitro minimum inhibitory concentration value against ethambutol resistant Mycobacterium tuberculosis in alamar assay
[13] = system: Mycobacterium tuberculosis; assay: Ratio of the MIC value of the Mycobacterium tuberculosis isoniazid resistant strain to H37Rv strain was determined
[14] = system: Mycobacterium tuberculosis; assay: Ratio of the MIC value of the Mycobacterium tuberculosis ethambutol resistant strain to H37Rv strain was determined

Row | Compound | Ratio [1] [µg/mL] | Ratio [2] [µg/mL] | Ratio [3] [µg/mL] | Ratio [4] | Ratio [5] | MIC [6] [µg/mL] | MIC [7] [µg/mL] | MIC [8] [µg/mL] | MIC [9] [µg/mL] | MIC [10] [µg/mL] | MIC [11] [µg/mL] | MIC [12] [µg/mL] | Ratio [13] | Ratio [14] [µg/mL]
1 | COC(=O)c1c(Cc2ccccc2)[n+]([O-])c2cc(Cl)c(Cl)cc2[n+]1[O-] | 1 | 1 | 1 | >=2 ug ml-1 | >=3.99 ug ml-1 | ≤ 3.13 | ≤ 3.13 | 6.25 (≈ 16.5 µM) | 6.25 (≈ 16.5 µM) | ≤ 3.13 | 12.5 (≈ 33 µM) | ≤ 3.13 | >=2 ug ml-1 | 1
2 | CCc1c(C(=O)OC)[n+]([O-])c2cc(C)c(C)cc2[n+]1[O-] | 2 | 1 | 1 | 2 µg/mL | 1 µg/mL | 0.78 (≈ 2.82 µM) | 0.39 (≈ 1.41 µM) | 0.78 (≈ 2.82 µM) | 1.56 (≈ 5.65 µM) | 0.39 (≈ 1.41 µM) | 0.39 (≈ 1.41 µM) | 0.78 (≈ 2.82 µM) | 4 µg/mL | 2
